Experiments:
[1] = molecular target: T1, Thyroid hormone receptor alpha [148-410] (Homo sapiens, UniProt P10827); assay: Fluorescence Polarization (FP) Competition Assay
T1 construct: 148-410
T1 sequence (P10827 whole entry): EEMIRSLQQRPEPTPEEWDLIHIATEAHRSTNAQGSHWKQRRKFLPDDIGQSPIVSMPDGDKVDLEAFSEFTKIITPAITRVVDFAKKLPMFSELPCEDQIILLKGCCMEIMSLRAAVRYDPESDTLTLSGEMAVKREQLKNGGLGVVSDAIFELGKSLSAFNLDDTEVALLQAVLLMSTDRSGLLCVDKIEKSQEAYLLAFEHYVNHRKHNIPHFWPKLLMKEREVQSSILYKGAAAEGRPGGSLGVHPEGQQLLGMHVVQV
Protocol: (§1) IC50 is the concentration of each compound required to inhibit 50% of the binding between the TR LBD and the SRC2-2 peptide using fluorescence polarization (FP) assay. The competition binding experiments were evaluated using PrismPad, and the IC50 values were obtained by fitting the data to an equation, Sigmoidal dose-response (variable slope) or four parameter logistic equation.

[2] = molecular target: T2, Thyroid hormone receptor beta [209-461] (Homo sapiens, UniProt P10828); assay: Fluorescence Polarization (FP) Competition Assay
T2 construct: 209-461
T2 sequence (P10828 whole entry): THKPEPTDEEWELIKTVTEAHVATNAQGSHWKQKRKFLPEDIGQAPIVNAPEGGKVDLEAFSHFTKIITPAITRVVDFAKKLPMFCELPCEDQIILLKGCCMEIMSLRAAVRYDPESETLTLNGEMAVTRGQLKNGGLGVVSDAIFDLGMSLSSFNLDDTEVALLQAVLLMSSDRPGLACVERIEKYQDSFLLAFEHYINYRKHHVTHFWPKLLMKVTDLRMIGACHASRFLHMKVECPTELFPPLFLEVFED
Protocol: as §1

| IC50 ([1]; pH 7.2, 22 °C) | IC50 [2] | IC50 [1] | Compound |
| --- | --- | --- | --- |
| 4.3 µM | 2.7 µM | – | CCCCCCc1ccc(C(=O)CCN2CCCC2)cc1 [1-(4-hexylphenyl)-3-(pyrrolidin-1-yl)propan-1-one] |
| – | 69.1 µM | 75.6 µM | C=CC(=O)OC1CCC(C(C)(C)CC)CC1 (centres undefined) [4-(2-methylbutan-2-yl)cyclohexyl prop-2-enoate] |
| 69.6 µM | 43.5 µM | – | C=CC(=O)Oc1ccc(C(C)(C)CC)cc1 [4-(2-methylbutan-2-yl)phenyl prop-2-enoate] |
| – | 85.9 µM | > 100 µM | C=CC(=O)Oc1ccc(NC(=O)CCC)cc1 [4-butanamidophenyl prop-2-enoate] |
| 71 µM | 66 µM | – | C=CC(=O)Oc1ccc(CCCC)cc1 [4-butylphenyl prop-2-enoate] |
| – | 10.5 µM | 23 µM | C=CC(=O)Oc1ccc(CCCCCCC)cc1 [4-heptylphenyl prop-2-enoate] |
| – | 18.6 µM | 45.2 µM | C=CC(=O)Oc1ccc(CCCCCC)cc1 [4-hexylphenyl prop-2-enoate] |
| – | 11.4 µM | 21.4 µM | C=CC(=O)Oc1ccc(CCCCCCCC)cc1 [4-octylphenyl prop-2-enoate] |
| 60.9 µM | 33.9 µM | – | C=CC(=O)Oc1ccc(CCCCC)cc1 [4-pentylphenyl prop-2-enoate] |
| – | 100 µM | – | C=CC(=O)Oc1ccc(CCC)cc1 [4-propylphenyl prop-2-enoate] |
| – | 69.8 µM | 85.3 µM | C=CC(=O)Oc1ccc2c(c1)CCCC2 [5,6,7,8-tetrahydronaphthalen-2-yl prop-2-enoate] |
| 19.2 µM | 17.7 µM | – | CCCCCCc1ccc(C(=O)/C=C/C(=O)O)cc1 [(2E)-4-(4-hexylphenyl)-4-oxobut-2-enoic acid] |
| – | 8.2 µM | 39.1 µM | C=CC(=O)Oc1ccccc1C(=O)OCCCCCC [hexyl 2-(prop-2-enoyloxy)benzoate] |
| – | 55.8 µM | > 100 µM | C=CC(=O)Oc1ccc(C(=O)OCCCCC)cc1 [pentyl 4-(prop-2-enoyloxy)benzoate] |
| – | 61 µM | > 100 µM | C=CC(=O)Oc1ccc(C(=O)OCCC)cc1 [propyl 4-(prop-2-enoyloxy)benzoate] |

— BindingDB's records for doi:10.1021/jm070556y (St. Jude Research Hospital, 2007)
